Test results from ChEMBL document CHEMBL3507680, “University of Dundee, Gates Library screen for HepG2 cell viability”.

Test: Human HepG2 cell viability assay in 384 well format
Format: toxicity, cell-based
Set-up: dose 125 nL, time 70.5 hour; concentration not given beside the values
Conditions: HepG2 cells, read-out: Inhibition

Row | Compound | cytotoxicity at 70.5 h [%]
1 | CCc1n[nH]c(C2CN(C(=O)c3ccnc(C4CC4)n3)CCO2)n1 (configuration not stated) | -5.63
2 | COc1ccc(CC(=O)N2CCCC2Cn2cc(C)cn2)cc1OC (configuration not stated) | -0.349
3 | O=C(CCc1ccccn1)N1CCCN(C(=O)CC2CCCC2)CC1 | 4.27
4 | CCn1cc(CN2CCCN(C(=O)c3ccccc3C)CC2)cn1 | -2.18
5 | Cc1nn(C)c(Cl)c1C1CCCN1C(=O)c1ccnc(N(C)C)c1 (configuration not stated) | -2.23
6 | Cc1nc(CN(C)C2CCN(CCc3ccc4c(c3)CCO4)C2)no1 (configuration not stated) | 1.48
7 | Cc1nc(CN(C)C2CCN(Cc3cccc(F)c3)C2)no1 (configuration not stated) | 1.26
8 | CCc1noc(CNC2CCCN(Cc3noc(C4CC4)n3)C2)n1 (configuration not stated) | -5.98
9 | CNc1cc2c(nn1)CCN(C(=O)c1coc(Br)c1)C2 | 17.6
10 | CCc1noc(C)c1C(=O)N1CCCN(Cc2cscn2)CC1 | -10.2
11 | CCn1cc(CN2CCCN(C(=O)c3ccccc3OC)CC2)cn1 | -15.6
12 | CCn1cc(CN2CCCN(C(=O)c3ccc(C)o3)CC2)cn1 | 20.7
13 | O=C(NCCC(=O)N1CCCc2ccccc21)c1ccc(F)cc1F | -14.2
14 | Cc1nc(CN(C)C2CCN(Cc3cccc4c3OCCO4)C2)no1 (configuration not stated) | 28.1
15 | COc1c(CNCC(O)c2cccc(F)c2)c(C)nn1C (configuration not stated) | -9.63
16 | CC(C)C(=O)NCc1ccc(N(C)C)cc1 | -4.78
17 | CN(C)c1cc(CNC(=O)c2ccc(O)nc2)ccn1 | 14.5
18 | Cn1cnnc1C1CCCN(C(=O)c2ccccn2)C1 (configuration not stated) | 16
19 | COc1c(CNCC(O)c2ccccc2)c(C(C)C)nn1C (configuration not stated) | -9.73
20 | COc1c(CNCC(O)c2ccc(C)cc2)c(C(C)C)nn1C (configuration not stated) | -3.08
21 | CCn1cc(CN2CCCN(C(=O)c3ccoc3)CC2)cn1 | 9.04
22 | CCn1cc(CN2CCCN(C(=O)c3cccn3C)CC2)cn1 | -7.92
23 | COc1c(C2CCCN2C(=O)c2ccc(O)nc2)c(C)nn1C (configuration not stated) | -8.59
24 | COc1c(C2CCCN2C(=O)c2ccc(N(C)C)nn2)c(C)nn1C (configuration not stated) | -8.95
25 | O=C(NCC(=O)N1CCCc2ccccc21)c1c(O)cc(F)cc1F | 0.334
26 | CC(C)Cn1[nH]cc/c1=N\C(=O)CN1CCOC(Cn2cccn2)C1 (configuration not stated) | 21.5

Row | Compound | cytotoxicity at 70.5 h [%]
27 | Cc1ccc(CN2CCCN(Cc3cscn3)CC2)cc1 | 3.58
28 | N#CCc1ccc(OCC(=O)N2CCCC(n3cccn3)C2)cc1 (configuration not stated) | -10.5
29 | O=C(c1cccc2c1OCCO2)N1CCCC1Cn1cccn1 (configuration not stated) | -8.07
30 | Cc1cc(NC(=O)CN2CCOC(Cn3nc(C)cc3C)C2)n(C)n1 (configuration not stated) | -8.28
31 | COc1ccc(CCCC(=O)N2CCCC(n3cccn3)C2)cc1 (configuration not stated) | 14.5
32 | COc1c(C)cnc(CN(C)C(=O)c2ccccc2F)c1C | -4.79
33 | Cn1cnnc1C1CCCN(C(=O)CCc2ccc3c(c2)OCO3)C1 (configuration not stated) | 15.2
34 | COc1ccc(NC(=O)N2CCCCCC2c2ccncc2)cn1 (configuration not stated) | -6.87
35 | COc1ccc(NC(=O)N2CCCC2c2ccncc2)cn1 (configuration not stated) | -11.6
36 | N#Cc1cccc(CN2CCN(Cc3cscn3)CC2)c1 | -10
37 | Cc1noc2ncc(C(=O)N3CCCC(n4cccn4)C3)cc12 (configuration not stated) | -2.98
38 | N#Cc1ccc(OCC(=O)N2CCCC(n3cccn3)C2)cc1 (configuration not stated) | -4.85
39 | Cc1nnc(NC(=O)CN2CCOC(Cn3cccn3)C2)s1 (configuration not stated) | -6.17
40 | O=C(c1cccc2c1OCCO2)N1CCCCC1Cn1cccn1 (configuration not stated) | -6.1
41 | Cc1cnn(CC2CCCCN2C(=O)c2cccc3c2OCO3)c1 (configuration not stated) | -8.6
42 | CC(C)c1nc2n(n1)CC(NCc1nc(-c3ccccn3)no1)CC2 (configuration not stated) | -7.49
43 | CC(C)c1nc2n(n1)CC(NCc1nc(-c3ccsc3)no1)CC2 (configuration not stated) | -11.5
44 | Cc1cc(C(=O)N2CCCC(n3nc(C)cc3C)C2)on1 (configuration not stated) | -10.1
45 | Cc1cc(C)n(C2CCCN(C(=O)c3c(C)noc3C)C2)n1 (configuration not stated) | -7.4
46 | Cc1n[nH]c(C2CN(Cc3nnc(C4CC4)n3C)CCO2)n1 (configuration not stated) | -6.69
47 | CCc1nc(CN2CCCN(CC(=O)Nc3cccnc3)CC2)no1 | 8.11
48 | Cc1cc(CN(C)C2CCCN(Cc3noc(C)n3)C2)on1 (configuration not stated) | 17.4
49 | COC1CCN(Cc2csc(C(C)C)n2)CC1 | -5.9
50 | CC(C)c1nc(CN2CCN(Cc3ccccn3)CC2)cs1 | -3.18
51 | Cc1csc(CNC(=O)Cc2ccc3c(c2)OCCO3)n1 | -5.71
52 | CCOc1ccc(CC(CNC(=O)c2ccc(C)s2)C(N)=O)cc1 (configuration not stated) | 4.65

Row | Compound | cytotoxicity at 70.5 h [%]
53 | CCc1nnc2n1CCN(CC(=O)Nc1cc(C)on1)C2 | 0.374
54 | Cc1nc2ccccc2nc1CN1CCCC(Cn2cncn2)C1 (configuration not stated) | -3.51
55 | Cc1ccc(C(=O)Nc2cc(F)ccc2OCC2CCCO2)cn1 (configuration not stated) | -3.09
56 | Cc1nc2ccccc2nc1CN1CCCCC1Cn1cccn1 (configuration not stated) | -12.7
57 | CS(=O)(=O)c1ccc(CNC2CCCN(c3cccnn3)C2)cc1 (configuration not stated) | -6.92
58 | OCC1CCCN1c1cc(N2CCC(OC3CCCC3)CC2)ncn1 (configuration not stated) | -3.18
59 | Cc1noc(C(C)C)c1C(=O)N1CCCN(Cc2cscn2)CC1 | 1.02
60 | Cc1cccc(C)c1NC(=O)CCNC(=O)c1ccoc1 | -3.89
61 | Cc1cccc(C)c1OCCNC(=O)NC(C)c1nncn1C (configuration not stated) | 41.6
62 | Cc1ccoc1C(=O)NCC(Cc1ccc(F)cc1)C(N)=O (configuration not stated) | -3.51
63 | CCOc1ccc(CC(CNC(=O)c2ccoc2)C(N)=O)cc1 (configuration not stated) | 49.1
64 | CCOc1ccc(CC(CNC(=O)c2occc2C)C(N)=O)cc1 (configuration not stated) | 6.46
65 | NC(=O)c1ccc(OCC(=O)N2CCCC(n3cccn3)C2)cc1 (configuration not stated) | -12
66 | Cc1oc(C)c(C(=O)N2CCCN(Cc3cscn3)CC2)c1C | 5.51
67 | Cc1cc(C)n(C2CCCN(C(=O)c3cnc4onc(C)c4c3)C2)n1 (configuration not stated) | -7.95
68 | Cc1nc(C)n(C2CCCN(C(=O)c3cc4ccccc4n3C)C2)n1 (configuration not stated) | -1.56
69 | CC(C)c1nnc2n1CCN(C(=O)c1ccc(CN(C)C)cc1)C2 | 3.04
70 | CC(C)c1nccn1C1CCCN(C(=O)c2ccnc(N(C)C)c2)C1 (configuration not stated) | -2.47
71 | c1cnnc(N2CCCC(NCc3ccc(-n4ccnc4)cc3)C2)c1 (configuration not stated) | -10.5
72 | COc1ccccc1C(=O)N(C)Cc1ncc(C)c(OC)c1C | -6.37
73 | CCn1c(C)cc(C(=O)N2CCCC(c3nc(C)no3)C2)c1C (configuration not stated) | -3.95
74 | CN(CC1CN(Cc2cn3ccsc3n2)CCO1)c1cccnn1 (configuration not stated) | -2.29
75 | CCc1[nH]ncc1C(=O)N1CCCN(Cc2cnn(C)c2)CC1 | -10.9
76 | CNC(=O)CN1CCC(NC(=O)N(C)Cc2cc(C)on2)CC1 | -10.8
77 | CN(Cc1cccs1)C(=O)CS(=O)(=O)Cc1ccc(Cl)c(Cl)c1 | 26.3
78 | CC(OCC(F)(F)F)C(=O)Nc1ccc(-n2cncn2)nc1 (configuration not stated) | -12.6

Row | Compound | cytotoxicity at 70.5 h [%]
79 | CCc1nnc(CN2CCN(C(=O)c3ccccn3)CC2)o1 | -21.8
80 | CN(Cc1ccccc1F)C(=O)CS(=O)(=O)Cc1ccc(Cl)c(Cl)c1 | -19
81 | CNS(=O)(=O)c1ccc(CNC(=O)NCC2CCOC2)cc1 (configuration not stated) | -31.2
82 | Cc1cc(CN(C)C(=O)NC2CCS(=O)(=O)C2)no1 (configuration not stated) | -15.8
83 | CC(C)C(=O)NCc1cccc(N2CCCCC2=O)c1 | -12.2
84 | Cn1cnnc1C1CCCN(C(=O)NCCc2ccccc2F)C1 (configuration not stated) | -11.6
85 | c1coc(-c2noc(CN3CC(n4cccn4)C3)n2)c1 | -7.3
86 | CCn1cnnc1C1CCN(C(=O)COc2ccccc2)CC1 | -9.36
87 | Cc1oc(-c2ccco2)nc1CC(=O)N1CCN(C2CCC2)CC1 | -1.12
88 | Cc1noc(C2CCCN(C(=O)c3ccc(Br)cc3F)C2)n1 (configuration not stated) | -7.35
89 | Cc1nc(C(=O)N2CCC(Nc3cccnn3)CC2)cs1 | 28.6
90 | Cc1nnc(N2CCC(CN(C)C(C)C)CC2)c(C#N)c1C | 20.7
91 | CC(C)c1nc(CN2CCCCC2)cs1 | -4.92
92 | O=C(Cc1ccc2c(c1)OCCO2)N1CCCC(n2cccn2)C1 (configuration not stated) | -19.6
93 | CC(C)c1nc(CC(=O)Nc2nc(CN3CCCCCC3)cs2)cs1 | 16.6
94 | CCc1nc(C2CCCN2Cc2nccn2Cc2ccccc2)no1 (configuration not stated) | -10.3
95 | CC1CN(CC2CCCCC2)CCN1c1ccc2nncn2n1 (configuration not stated) | 41.2
96 | Cc1cc(CN(C)C(=O)c2ccc(F)cc2Br)no1 | -9.11
97 | CC(C)(C)c1cn2nc(N3CCCC3Cn3cncn3)sc2n1 (configuration not stated) | -10.8
98 | Cc1[nH]ncc1C(=O)N1CCN(CC(O)C(C)(C)C)CC1 (configuration not stated) | -14.9
99 | Cn1nc2c(cc1=O)CN(Cc1nnc(-c3ccco3)o1)CC2 | -3.38
100 | Cn1nc2c(cc1=O)CN(Cc1nnc(C3CC3)o1)CC2 | 19.5
101 | Cc1ccc(CNC2CCCc3c2cnn3Cc2ccccc2)s1 (configuration not stated) | -8.41
102 | Cn1ncc2c1CCCC2NCc1ccc(Br)s1 (configuration not stated) | 3.28
